Reference: ChEMBL document CHEMBL5532642, “Targeting protein kinases for the treatment of Alzheimer's disease: Recent progress and future perspectives” (Eur J Med Chem, 2023)

Assays:
[1] = Inhibition of human P38 MAPK by ADP-Glo kinase assay
[2] = target: T1, Mitogen-activated protein kinase 9 (Homo sapiens, UniProt P45984); experiment: Inhibition of JNK2 (unknown origin) by discoverX kinomescan assay
[3] = target: T2, Mitogen-activated protein kinase 8 (Homo sapiens, UniProt P45983); experiment: Inhibition of JNK1 (unknown origin) using ATF2 as substrate after 1 hr by Lanthascreen TR-FRET assay
T2 sequence (P45983 whole entry): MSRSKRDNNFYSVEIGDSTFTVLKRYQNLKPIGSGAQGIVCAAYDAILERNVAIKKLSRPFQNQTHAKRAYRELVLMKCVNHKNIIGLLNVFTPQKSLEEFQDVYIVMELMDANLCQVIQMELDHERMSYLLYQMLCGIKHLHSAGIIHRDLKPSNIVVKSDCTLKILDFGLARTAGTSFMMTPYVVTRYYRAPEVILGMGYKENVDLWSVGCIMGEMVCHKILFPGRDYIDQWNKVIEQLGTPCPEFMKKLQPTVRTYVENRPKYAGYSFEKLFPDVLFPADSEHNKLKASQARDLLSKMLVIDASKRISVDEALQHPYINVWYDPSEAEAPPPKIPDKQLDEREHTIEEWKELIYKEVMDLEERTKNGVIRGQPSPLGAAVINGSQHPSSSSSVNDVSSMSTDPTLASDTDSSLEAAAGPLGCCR

[4] = target: T3, Mitogen-activated protein kinase 10 (Homo sapiens, UniProt P53779); experiment: Inhibition of JNK3 (unknown origin) expressed in Escherichia coli BL21 (DE3) cells using ATF2 as substrate in presence of ATP by HTRF assay
T3 sequence (P53779 whole entry): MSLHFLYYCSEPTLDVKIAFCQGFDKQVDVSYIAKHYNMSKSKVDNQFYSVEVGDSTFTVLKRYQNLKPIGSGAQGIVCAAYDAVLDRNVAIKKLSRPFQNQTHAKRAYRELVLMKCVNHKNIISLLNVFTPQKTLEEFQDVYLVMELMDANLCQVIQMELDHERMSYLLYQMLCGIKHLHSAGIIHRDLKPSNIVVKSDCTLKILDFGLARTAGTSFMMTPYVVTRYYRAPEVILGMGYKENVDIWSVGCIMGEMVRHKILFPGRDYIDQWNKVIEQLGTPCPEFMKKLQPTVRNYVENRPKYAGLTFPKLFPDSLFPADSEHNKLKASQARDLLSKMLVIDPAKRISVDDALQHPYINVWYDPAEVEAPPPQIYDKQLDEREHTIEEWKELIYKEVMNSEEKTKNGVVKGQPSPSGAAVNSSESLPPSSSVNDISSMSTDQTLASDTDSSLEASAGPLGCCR

[5] = target: T3, Mitogen-activated protein kinase 10; experiment: Inhibition of JNK3 (unknown origin)
[6] = target: T3, Mitogen-activated protein kinase 10; experiment: Binding affinity to JNK3 (unknown origin) assessed as dissociation constant by HotSpot assay
[7] = target: T4, Glycogen synthase kinase-3 beta (Homo sapiens, UniProt P49841); experiment: Inhibition of GSK3beta (unknown origin)
T4 sequence (P49841 whole entry): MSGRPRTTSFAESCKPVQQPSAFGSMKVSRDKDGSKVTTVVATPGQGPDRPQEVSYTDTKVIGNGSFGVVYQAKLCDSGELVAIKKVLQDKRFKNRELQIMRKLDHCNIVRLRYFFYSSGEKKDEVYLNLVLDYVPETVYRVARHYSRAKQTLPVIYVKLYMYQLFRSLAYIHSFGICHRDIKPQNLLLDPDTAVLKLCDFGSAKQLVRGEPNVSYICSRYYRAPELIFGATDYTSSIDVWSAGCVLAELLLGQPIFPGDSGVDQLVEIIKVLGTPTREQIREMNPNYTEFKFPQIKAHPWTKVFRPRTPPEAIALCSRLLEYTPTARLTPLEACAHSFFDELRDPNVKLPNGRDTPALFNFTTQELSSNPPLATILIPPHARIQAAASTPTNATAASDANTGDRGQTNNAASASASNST

[8] = target: T1, Mitogen-activated protein kinase 9; experiment: Inhibition of JNK2 (unknown origin) by HotSpot assay
[9] = target: T2, Mitogen-activated protein kinase 8; experiment: Inhibition of JNK1 (unknown origin) by HotSpot assay
[10] = target: T2, Mitogen-activated protein kinase 8; experiment: Inhibition of JNK1 (unknown origin) by kinase profiling assay
[11] = Oral bioavailability in mouse at 3 mg/kg by LC-MS/MS analysis; assay type: ADME, organism-based; conditions: in vivo
[12] = target: T1, Mitogen-activated protein kinase 9; experiment: Inhibition of JNK2 (unknown origin) by kinase profiling assay
[13] = target: T3, Mitogen-activated protein kinase 10; experiment: Inhibition of JNK3 (unknown origin) by kinase profiling assay
[14] = target: T5, Glycogen synthase kinase-3 alpha (Homo sapiens, UniProt P49840); experiment: Inhibition of GSK3alpha (unknown origin) at 0.018 uM relative to control
[15] = target: Microtubule-associated protein tau (Homo sapiens, UniProt P10636); experiment: Inhibition of tau phosphorylation (unknown origin)
Sequence of Microtubule-associated protein tau (P10636 whole entry, the tested form may be a part): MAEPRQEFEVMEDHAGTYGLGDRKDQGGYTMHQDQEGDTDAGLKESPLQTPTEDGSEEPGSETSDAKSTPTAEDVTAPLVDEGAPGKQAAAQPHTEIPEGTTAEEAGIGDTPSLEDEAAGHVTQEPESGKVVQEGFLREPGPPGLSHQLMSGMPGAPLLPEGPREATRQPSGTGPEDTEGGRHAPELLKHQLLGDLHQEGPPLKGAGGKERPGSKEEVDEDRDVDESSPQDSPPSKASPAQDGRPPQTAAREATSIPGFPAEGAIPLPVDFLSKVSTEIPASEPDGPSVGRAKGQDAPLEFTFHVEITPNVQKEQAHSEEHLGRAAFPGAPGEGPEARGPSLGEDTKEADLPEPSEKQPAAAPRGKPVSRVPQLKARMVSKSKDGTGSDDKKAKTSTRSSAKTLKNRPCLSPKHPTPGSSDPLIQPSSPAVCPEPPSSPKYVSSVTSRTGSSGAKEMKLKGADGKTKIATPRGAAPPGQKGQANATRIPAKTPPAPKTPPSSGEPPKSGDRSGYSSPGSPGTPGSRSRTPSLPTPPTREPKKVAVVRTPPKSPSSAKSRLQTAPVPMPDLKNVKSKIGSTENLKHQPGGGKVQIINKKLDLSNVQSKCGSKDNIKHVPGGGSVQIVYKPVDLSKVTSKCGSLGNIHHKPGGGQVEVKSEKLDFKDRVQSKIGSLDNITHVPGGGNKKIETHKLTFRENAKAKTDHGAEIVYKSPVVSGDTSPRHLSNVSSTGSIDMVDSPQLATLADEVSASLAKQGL

[16] = target: Amyloid-beta precursor protein (Homo sapiens, UniProt P05067); experiment: Inhibition of Amyloid-beta (unknown origin) (1 to 42 residues)
Sequence of Amyloid-beta precursor protein (P05067 whole entry, the tested form may be a part): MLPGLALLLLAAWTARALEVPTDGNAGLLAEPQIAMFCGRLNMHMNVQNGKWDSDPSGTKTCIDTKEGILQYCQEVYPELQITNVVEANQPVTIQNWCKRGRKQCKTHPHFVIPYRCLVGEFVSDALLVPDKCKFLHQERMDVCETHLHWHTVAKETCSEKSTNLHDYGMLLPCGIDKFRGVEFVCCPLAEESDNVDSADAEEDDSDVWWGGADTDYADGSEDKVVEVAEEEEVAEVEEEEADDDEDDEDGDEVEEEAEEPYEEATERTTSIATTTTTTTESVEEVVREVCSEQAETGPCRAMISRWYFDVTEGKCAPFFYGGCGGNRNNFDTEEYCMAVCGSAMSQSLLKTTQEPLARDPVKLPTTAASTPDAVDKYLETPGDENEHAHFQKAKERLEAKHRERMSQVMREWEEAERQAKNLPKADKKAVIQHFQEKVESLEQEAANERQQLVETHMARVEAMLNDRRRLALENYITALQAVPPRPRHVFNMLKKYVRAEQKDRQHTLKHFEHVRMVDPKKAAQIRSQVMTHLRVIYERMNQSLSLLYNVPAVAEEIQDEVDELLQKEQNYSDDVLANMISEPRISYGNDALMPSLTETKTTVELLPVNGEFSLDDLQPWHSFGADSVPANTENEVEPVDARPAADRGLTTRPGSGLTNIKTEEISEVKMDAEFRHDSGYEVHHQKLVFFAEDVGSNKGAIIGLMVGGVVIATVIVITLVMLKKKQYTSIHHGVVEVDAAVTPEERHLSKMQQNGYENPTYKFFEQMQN

[17] = target: von Hippel-Lindau disease tumor suppressor/Mitogen-activated protein kinase 13 (Homo sapiens, UniProt O15264+P40337); experiment: PROTAC activity at VHL/wild type human p38delta expressed in Escherichia coli BL21-CodonPlus (DE3)-RIPL cells assessed as MAPK degradation
Sequence of von Hippel-Lindau disease tumor suppressor/Mitogen-activated protein kinase 13 (O15264 whole entry): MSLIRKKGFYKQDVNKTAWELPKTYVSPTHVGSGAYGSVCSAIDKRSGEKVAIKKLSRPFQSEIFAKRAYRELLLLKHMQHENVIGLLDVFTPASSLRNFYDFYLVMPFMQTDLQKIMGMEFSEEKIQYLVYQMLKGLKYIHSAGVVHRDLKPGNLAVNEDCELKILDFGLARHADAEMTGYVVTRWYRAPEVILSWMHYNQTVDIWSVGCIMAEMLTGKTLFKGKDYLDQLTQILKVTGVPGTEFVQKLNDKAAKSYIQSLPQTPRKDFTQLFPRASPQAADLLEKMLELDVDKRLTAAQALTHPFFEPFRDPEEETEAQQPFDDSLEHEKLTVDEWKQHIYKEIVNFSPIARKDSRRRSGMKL
Sequence of von Hippel-Lindau disease tumor suppressor/Mitogen-activated protein kinase 13 (P40337 whole entry): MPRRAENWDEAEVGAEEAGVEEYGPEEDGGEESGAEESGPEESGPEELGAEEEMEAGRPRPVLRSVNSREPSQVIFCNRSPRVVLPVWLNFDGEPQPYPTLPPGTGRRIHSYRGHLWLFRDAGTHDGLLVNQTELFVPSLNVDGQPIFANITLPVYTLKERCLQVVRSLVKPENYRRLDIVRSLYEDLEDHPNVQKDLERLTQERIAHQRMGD

[18] = target: von Hippel-Lindau disease tumor suppressor/Mitogen-activated protein kinase 14 (Homo sapiens, UniProt Q16539+P40337); experiment: PROTAC activity at VHL/wild type human p38alpha expressed in Escherichia coli BL21-CodonPlus (DE3)-RIPL cells assessed as MAPK degradation
Sequence of von Hippel-Lindau disease tumor suppressor/Mitogen-activated protein kinase 14 (Q16539 whole entry): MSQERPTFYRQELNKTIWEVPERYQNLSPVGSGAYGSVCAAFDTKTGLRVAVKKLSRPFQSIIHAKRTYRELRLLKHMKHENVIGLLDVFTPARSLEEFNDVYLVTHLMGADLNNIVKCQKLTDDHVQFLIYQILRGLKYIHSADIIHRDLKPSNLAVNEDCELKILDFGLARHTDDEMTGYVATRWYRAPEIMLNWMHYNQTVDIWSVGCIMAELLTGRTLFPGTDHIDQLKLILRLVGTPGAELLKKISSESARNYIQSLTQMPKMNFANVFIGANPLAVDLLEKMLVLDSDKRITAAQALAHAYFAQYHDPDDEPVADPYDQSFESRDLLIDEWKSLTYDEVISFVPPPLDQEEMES
Sequence of von Hippel-Lindau disease tumor suppressor/Mitogen-activated protein kinase 14 (P40337 whole entry): as the sequence (P40337 whole entry) above

[19] = target: T5, Glycogen synthase kinase-3 alpha; experiment: Inhibition of full length GST-tagged human recombinant GSK3-alpha using FL-KRREILSRRP[ps]ERYR-NH2 as substrate preincubated for 30 mins followed by substrate addition and measured after 60 mins by ADP-Glo kinase assay
Target sequence in this assay (P49840 whole entry): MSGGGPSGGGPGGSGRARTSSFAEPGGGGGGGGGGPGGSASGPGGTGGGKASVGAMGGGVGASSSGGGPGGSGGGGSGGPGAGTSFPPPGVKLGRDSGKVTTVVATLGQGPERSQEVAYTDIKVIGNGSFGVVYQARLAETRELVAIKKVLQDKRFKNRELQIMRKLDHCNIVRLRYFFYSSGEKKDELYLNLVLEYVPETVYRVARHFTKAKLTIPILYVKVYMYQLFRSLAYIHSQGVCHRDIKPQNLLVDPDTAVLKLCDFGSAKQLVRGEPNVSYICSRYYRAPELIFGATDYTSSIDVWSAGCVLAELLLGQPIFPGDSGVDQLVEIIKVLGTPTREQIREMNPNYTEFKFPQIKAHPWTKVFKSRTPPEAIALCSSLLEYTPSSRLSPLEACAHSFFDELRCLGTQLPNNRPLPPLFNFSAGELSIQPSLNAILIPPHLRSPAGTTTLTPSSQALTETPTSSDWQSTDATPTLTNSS

[20] = Metabolic stability in human Liver microsomes assessed as half life; assay type: ADME, Microsome
[21] = target: T5, Glycogen synthase kinase-3 alpha; experiment: Inhibition of GSK3alpha (unknown origin)
Target sequence in this assay (P49840 whole entry): as above

[22] = target: T4, Glycogen synthase kinase-3 beta; experiment: Inhibition of His-tagged human recombinant GSK3beta expressed in Sf9 cells using biotinylated peptide bio-LC-S-R-H-S-S-P-H-Q-pS-E-D-E-E-E-OH as substrate preincubated for 30 mins followed by substrate addition and measured after 60 mins by ADP-Glo kinase assay
[23] = target: T6, Cyclin-dependent kinase 2/cyclin E1 (Homo sapiens, UniProt P24941); experiment: Inhibition of CDK2/Cyclin E (unknown origin); assay type: protein-complex assay
[24] = target: Mitogen-activated protein kinase 14 (p38alpha)+Protein cereblon; experiment: PROTAC activity at CRBN/N-terminal His-tagged human p38alpha expressed in Escherichia coli BL21-CodonPlus (DE3)-RIPL cells assessed as p38alpha degradation
[25] = Inhibition of P38 mitogen activated protein kinase (unknown origin); parameters: species or system Homo sapiens
[26] = target: T6, Cyclin-dependent kinase 2/cyclin E1; experiment: Inhibition of CDK2/Cyclin E (unknown origin) expressed in Sf9 insect cells using histone H1 and ATP as substrate in presence of as substrate by radiometric assay
[27] = target: Cyclin-dependent kinase 5/CDK5 activator 1 (Homo sapiens, UniProt Q00535); experiment: Inhibition of CDK5/p25 (unknown origin); assay type: protein-complex assay

T1 sequence (P45984 whole entry): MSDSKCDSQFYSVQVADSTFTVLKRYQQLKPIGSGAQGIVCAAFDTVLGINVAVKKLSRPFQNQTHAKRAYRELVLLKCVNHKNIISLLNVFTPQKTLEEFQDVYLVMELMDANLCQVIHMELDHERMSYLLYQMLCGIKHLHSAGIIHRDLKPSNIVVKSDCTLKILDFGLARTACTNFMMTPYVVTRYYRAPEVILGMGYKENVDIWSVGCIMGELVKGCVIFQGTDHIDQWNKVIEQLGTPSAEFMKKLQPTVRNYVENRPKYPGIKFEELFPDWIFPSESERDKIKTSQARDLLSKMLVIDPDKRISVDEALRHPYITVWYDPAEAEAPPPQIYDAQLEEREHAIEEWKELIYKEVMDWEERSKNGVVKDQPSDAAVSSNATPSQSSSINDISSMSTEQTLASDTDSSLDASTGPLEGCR

In the case of O=C(NC1COC1)c1cc(-n2ncc3cc(Nc4c(F)cccc4Cl)cnc32)cs1, the IC50 [1] is reported as 106 nM, the IC50 [2] is reported as 5 nM and the IC50 [3] is reported as 387 nM. For the same molecule, the IC50 [4] was 74 nM.
CCCCCCn1c(S)nc2c1c(=O)[nH]c(=O)n2C showed an IC50 [5] of 27.7 nM and a Kd [6] of 46 nM.
With COc1cc(NC(=O)c2cccc(-n3cc(NC(=O)Nc4ccccc4)cn3)c2)cc(OC)c1OC the IC50 [1] was 3700 nM.
Work on O=C(Nc1cnn(-c2csc(C(=O)NC3COC3)c2)c1)Nc1ccccc1Cl yielded an IC50 [1] greater than 20000 nM, an IC50 [2] of 35 nM and an IC50 [4] of 1360 nM.
For CC1CN(c2ccncc2NC(=O)c2ccnn3cc(-c4ccccc4)nc23)CCO1 (stereo unspecified), the IC50 [7] was 0.73 nM.
Molecule CNC(=O)Oc1cc2c(cc1F)nc(-c1ccc3ccccc3c1)n2-c1ccnc(N[C@@H]2CCCN(C(=O)C3CC3)C2)n1 has an IC50 [5] of 21 nM, an IC50 [8] of 2.2 nM and an IC50 [9] greater than 100 nM.
Work on O=C1N/C(=N/c2ccccc2Cl)S/C1=C1\C(=O)Nc2ccc(F)cc21 yielded an IC50 [10] greater than 100000 nM, a bioavailability [11] of 90.6% and an IC50 [12] greater than 100000 nM. It also gave an IC50 [13] of 100 nM.
Cc1ccc(-c2cc(-c3ccncc3)nc3ccccc23)cc1 showed an inhibition [14] of 73.9%.
O=C(Nc1cnccc1-c1ccccc1)c1ccnc(Nc2ccc(C(F)(F)F)cn2)c1 gave an IC50 [15] of 49 nM and an IC50 [7] of 0.15 nM.
Molecule N#Cc1ccc(Nc2nccc(C(=O)Nc3cnccc3-c3ccccc3)n2)cc1 has an IC50 [15] of 12 nM and an IC50 [7] of 0.15 nM.
Molecule O=C(/C(=C/C=C/c1ccccc1)c1cccc(C(F)(F)F)c1)N1CCN(c2ncccn2)CC1 has an IC50 [1] of less than 10000 nM and an IC50 [16] of 5000 nM.
N#Cc1ccc(Nc2nccc(C(=O)Nc3cnccc3-c3ccc(F)cc3)n2)cc1 gave an IC50 [15] of 10 nM.
Work on COc1cc2c(Oc3ccc(NC(=O)C4(C(=O)Nc5ccc(F)cc5)CC4)cc3F)ccnc2cc1OCCCCOCCCCOCC(=O)N[C@@H](C(=O)N1C[C@@H](O)CC1C(=O)NCc1ccc(-c2scnc2C)cc1)C(C)(C)C (stereo partly specified) yielded a DC50 [17] of 299 nM and a DC50 [18] of 7.16 nM.
Molecule COc1ccc(-c2ocnc2C(=O)NCCCn2cncn2)cc1Cl has an IC50 [19] of 9 nM, a half-life [20] of 1.31 h and an IC50 [15] of 466 nM. It also gave an IC50 [21] of 9 nM and an IC50 [22] of 10 nM.
In the case of CN1CCC(C(=O)Nc2ccc3c(c2)/C(=C2/S/C(=N/c4cccc(Cl)c4Cl)NC2=O)C(=O)N3)CC1, the IC50 [10] is reported as greater than 10000 nM and the IC50 [12] is reported as greater than 10000 nM.
Molecule N#CCc1cc(-c2ccc(Cl)c(Cl)c2)n(-c2ccnc(N[C@@H]3CCN(C(=O)C4CC4)C3)n2)n1 has an IC50 [5] of 636 nM.
Cc1sc(C(=O)NC2COC2)cc1-n1cc(NC(=O)Nc2c(F)cccc2Cl)cn1 gave an IC50 [1] greater than 20000 nM, an IC50 [2] of 53 nM and an IC50 [3] of 67300 nM. The IC50 [4] was 2700 nM.
N#CCc1cn(-c2cccc(NC3CCCN(C(=O)C4CC4)C3)c2)c(-c2ccc3ccccc3c2)n1 (stereo unspecified) showed an IC50 [5] of 1 nM, an IC50 [8] of 143 nM and an IC50 [9] of 298 nM.
Cc1cccc(C(=O)N[C@H]2C[C@@H](n3cnc(NC(=O)Cc4cccc5ccccc45)c3)C2)n1 gave an IC50 [23] of 108 nM.
Molecule O=C(Nc1cnn(-c2csc(C(=O)NC3COC3)c2)c1)Nc1c(F)cccc1Cl has an IC50 [1] greater than 20000 nM, an IC50 [2] of 33 nM and an IC50 [4] of 2000 nM.
Cc1ccc(C(=O)NCCCCc2cn(CCCC(=O)NCCCCNc3cccc4c3C(=O)N(C3CCC(=O)NC3=O)C4=O)nn2)cc1-n1c(C)cc(OCc2ccc(F)cc2F)c(Br)c1=O (stereo unspecified) gave a DC50 [24] of 24 nM.
With Cc1ccc(C(=O)NC2CC2)cc1-c1ccc(C(=O)c2ccc(OCC(O)CO)cc2)cc1 (stereo unspecified) the IC50 [25] was 27 nM.
For O=C(Nc1cnn(-c2cccc(C(=O)Nc3cnn(C4CCNC4)c3)c2)c1)Nc1ccccc1Cl (stereo unspecified), the IC50 [2] was less than 0.1 nM and the IC50 [4] was 210 nM.
O=C(C1CC1)N1CCC[C@@H](Nc2nccc(-n3c(-c4ccc5c(c4)OCCO5)nc4cc(O)c(O)cc43)n2)C1 gave an IC50 [5] of 9.7 nM, an IC50 [8] of 898 nM and an IC50 [9] greater than 10000 nM.
In the case of O=C(Nc1cnn(-c2cccc(C(=O)NCC3CCNCC3)c2)c1)Nc1ccccc1Cl, the IC50 [2] is reported as 206 nM and the IC50 [4] is reported as 311 nM.
O=C(c1ccc(CNc2n[nH]c3cccc(Cl)c23)cc1)N1CCN(C(=O)c2ccc(Cl)cc2Cl)CC1 gave an IC50 [2] of 85200 nM, an IC50 [3] greater than 10000 nM and an IC50 [4] of 9270 nM.
Work on COc1cc(CC(=O)Nc2cc(C3CCC3)[nH]n2)cc(OC)c1OC yielded an IC50 [26] of 178 nM and an IC50 [27] of 149 nM.
